The values below come from patent US6989387B2, “Nitro and amino substituted topoisomerase agents” (Rutgers, The State University of New Jersey, priority 2002, dated 2006).

For one data set, the target named is T1, human topoisomerase I (Homo sapiens, UniProt P11387).
T1 construct: unnamed fusion partner (recombinant fusion protein, T7 expression system); made in house; host or cells: E. coli
T1 sequence (P11387 1-765): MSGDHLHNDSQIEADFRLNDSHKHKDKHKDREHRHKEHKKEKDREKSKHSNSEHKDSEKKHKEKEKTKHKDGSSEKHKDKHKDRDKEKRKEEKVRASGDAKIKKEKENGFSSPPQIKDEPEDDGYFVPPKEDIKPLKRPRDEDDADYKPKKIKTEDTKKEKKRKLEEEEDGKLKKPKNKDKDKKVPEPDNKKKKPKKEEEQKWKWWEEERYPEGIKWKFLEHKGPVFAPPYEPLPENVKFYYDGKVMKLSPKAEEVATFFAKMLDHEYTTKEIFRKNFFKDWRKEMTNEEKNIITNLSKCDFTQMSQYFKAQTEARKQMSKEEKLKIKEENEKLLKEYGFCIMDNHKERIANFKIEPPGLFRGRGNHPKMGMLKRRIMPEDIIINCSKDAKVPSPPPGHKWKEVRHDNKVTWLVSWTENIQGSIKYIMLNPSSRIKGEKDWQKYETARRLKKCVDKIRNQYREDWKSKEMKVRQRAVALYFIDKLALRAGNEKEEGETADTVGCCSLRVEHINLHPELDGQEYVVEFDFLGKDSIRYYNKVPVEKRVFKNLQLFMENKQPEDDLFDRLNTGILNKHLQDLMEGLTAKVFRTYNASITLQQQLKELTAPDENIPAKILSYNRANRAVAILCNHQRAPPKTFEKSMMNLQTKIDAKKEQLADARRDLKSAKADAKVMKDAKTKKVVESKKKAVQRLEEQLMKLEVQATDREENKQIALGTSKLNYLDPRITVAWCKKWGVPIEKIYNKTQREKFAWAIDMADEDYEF
As to the kind of experiment: Test A: topoisomerase I-mediated DNA cleavage assay. The format is biochemical. Conditions: relative effective concentration, relative to topotecan = 1, producing the same cleavage of plasmid DNA in presence of human TOP1. The source says:
Test A. Topoisomerase-Mediated DNA Cleavage Assays
Human topoisomerase I was expressed in E. Coli and isolated as a recombinant fusion protein using a T7 expression system as described by Gatto, B., et al., Cancer Res. 1996, 56, 2795–2800. Plasmid YepG was purified by the alkali lysis method followed by phenol deproteination and CsCl/ethidium isopycnic centrifugation method as described by Maniatis, T., et al., J. Molecular Cloning, a Laboratory Manual; Cold Spring Harbor Laboratory: Cold Spring Harbor, N.Y. 1982; pp 149–185. The end-labeling of the plasmid was accomplished by digestion with a restriction enzyme followed by end-filling with Klenow polymerase as previously described by Tewey, K. M., et al., Science 1984, 226, 466–468. The cleavage assays were performed as previously reported (see Gatto, B., et al., Cancer Res. 1996, 56, 2795–2800; and Wang, H., et al., Biochemistry 2001, 40; 3316–3323). The drug and the DNA in presence of topoisomerase I was incubated for 30 minutes at 37° C. The reactions were terminated by the addition of 5 μl of 5% SDS and 1 mg/ml […] with an additional 1 hour of incubation at 37° C. Samples were then alkali denatured by the addition of NaOH, EDTA, sucrose, and bromophenol blue to final concentrations of 75 mM, 2.5%, and 0.05 mg/ml, respectively, prior to loading onto a neutral agarose gel. After development of the gels, typically 24-hour exposure was used to obtain autoradiograms outlining the extent of DNA fragmentation.

Another data set concerns RPMI8402 cells. Briefly: Test B: MTT-microtiter plate tetrazolinium cytotoxicity assay, RPMI8402. The format is cell-based, human. The conditions noted are these: RPMI 8402, 96 h, read-out: Cytotoxicity (IC50; μM) RPMI8402. Here is the method: (§1) The cytotoxicity was determined using the MTT-microtiter plate tetrazolinium cytotoxicity assay (MTA—See Mosmann, T., J. Immunol. Methods 1983, 65, 55–63; Carmichael, J., et al., Cancer Res. 1987, 47, 936–942; and Denizot, F., et al., J. Immunol. Methods 1986, 89, 271–277). […] The cytotoxicity assay was performed using 96-well microtiter plates. Cells were grown in suspension at 37° C. in 5% CO2 and maintained by regular passage in RPMI medium supplemented with 10% heat- inactivated fetal bovine serum, L-glutamine (2 mM), penicillin (100 U/mL), and streptomycin (0.1 mg/mL). […] For determination of IC50, cells were exposed continuously for 4 days to varying concentrations of drug, and MTT assays were performed at the end of the fourth day. […] All assays were performed at least twice in 6 replicate wells.

Another data set relates to CPT-K5 cells. As to the kind of experiment: Test B: MTT-microtiter plate tetrazolinium cytotoxicity assay, CPT-K5. The data set is classed as cell-based. Conditions: Homo sapiens, CPT-K5, 96 h, read-out: Cytotoxicity (IC50; μM) CPT-K5. As to the method:
as §1

Read-outs that look alike come from different tables or passages of the source.

Turning to `CC[C@@]1(O)C(=O)OCc2c1cc1n(c2=O)Cc2cc3ccccc3nc2-1` [Camptothecin, reference compound], the “TOP1-mediated DNA Cleavage (REC)” value on human topoisomerase I came out at 0.5. Moreover, the IC50 in the data set with RPMI8402 cells (human lymphoblast RPMI8402, 4 days of continuous drug exposure, MTT) turned out to be 0.005 µM.
With `CN(C)CCn1c(=O)c2ccccc2c2cnc3cc4c(cc3c21)OCO4` [Compound 3, 2,3-Methylenedioxy-5-[2-(N,N-dimethylamino)ethyl]-5H-dibenzo[c,h]1,6-naphthyridin-6-one, reference compound], the “TOP1-mediated DNA Cleavage (REC)” value at human topoisomerase I turned out to be 6. Besides, the figures for the IC50 with CPT-K5 cells and in the data set with RPMI8402 cells (Homo sapiens) were 0.95 µM and 0.06 µM, respectively.
As for `CN(C)CCn1c(=O)c2cc([N+](=O)[O-])ccc2c2cnc3cc4c(cc3c21)OCO4` [Compound 4a, 8-Nitro-2,3-methylenedioxy-5-[2-(N,N-dimethylamino)ethyl]-5H-dibenzo[c,h][1,6]naphthyridin-6-one], the melting point is 219 to 220 °C. Also, at human topoisomerase I, the “TOP1-mediated DNA Cleavage (REC)” value is 0.2. Moreover, the IC50 in the data set on CPT-K5 cells was 0.33 µM. Also, in the data set on RPMI8402 cells (Homo sapiens), the IC50 is 0.003 µM.
In turn, `CN(C)CCn1c(=O)c2cc(N)ccc2c2cnc3cc4c(cc3c21)OCO4` [Compound 4b, 8-Amino-2,3-methylenedioxy-5-[2-(N,N-dimethylamino)ethyl]-5H-dibenzo[c,h][1,6]naphthyridin-6-one] came in with a melting point of 245 to 246 °C. Also, the “TOP1-mediated DNA Cleavage (REC)” value at human topoisomerase I was found to be 8.0. Moreover, the IC50 in the data set on CPT-K5 cells turned out to be 0.38 µM. Further, in the data set on RPMI8402 cells (Homo sapiens), the IC50 was found to be 0.08 µM.
The compound `CN(C)CCn1c(=O)c2ccc([N+](=O)[O-])cc2c2cnc3cc4c(cc3c21)OCO4` [Compound 5a, 9-Nitro-2,3-methylenedioxy-5-[2-(N,N-Dimethylamino)Ethyl]-5H-dibenzo[c,h][1,6]naphthyridin-6-one] gave a melting point of 258 to 259 °C. Moreover, the “TOP1-mediated DNA Cleavage (REC)” value at human topoisomerase I came out at 0.1. Further, the IC50 in the data set on CPT-K5 cells came to 2.8 µM. Also, in the data set with RPMI8402 cells (Homo sapiens), the IC50 was 0.002 µM.
`CN(C)CCn1c(=O)c2ccc(N)cc2c2cnc3cc4c(cc3c21)OCO4` [Compound 5b, 9-Amino-2,3-methylenedioxy-5-[2-(N,N-dimethylamino)ethyl]-5H-dibenzo[c,h][1,6]naphthyridin-6-one] showed a melting point of 300 to 301 °C. The “TOP1-mediated DNA Cleavage (REC)” value at human topoisomerase I is 0.5. In the data set on CPT-K5 cells, the IC50 was 1 µM. Also, the IC50 in the data set with RPMI8402 cells (Homo sapiens) was found to be 0.025 µM.
`CN(C)CCn1c(=O)c2cccc([N+](=O)[O-])c2c2cnc3cc4c(cc3c21)OCO4` [Compound 6a, 10-Nitro-2,3-methylenedioxy-5-[2-(N,N-dimethylamino)Ethyl]-5H-dibenzo[c,h][1,6]naphthyridin-6-one] returned a melting point of 189 to 190 °C. Moreover, the “TOP1-mediated DNA Cleavage (REC)” value at human topoisomerase I is recorded as 1000. Besides, the IC50 with CPT-K5 cells is over 10 µM. Further, the IC50 in the data set on RPMI8402 cells (Homo sapiens) was 4.8 µM.
As to `CN(C)CCn1c(=O)c2cccc(N)c2c2cnc3cc4c(cc3c21)OCO4` [Compound 6b, 10-Amino-2,3-methylenedioxy-5-[2-(N,N-dimethylamino)ethyl]-5H-dibenzo[c,h][1,6]naphthyridin-6-one], the melting point was 223 to 224 °C. Further, on human topoisomerase I, the “TOP1-mediated DNA Cleavage (REC)” value is 15. Also, the IC50 in the data set on CPT-K5 cells came out at 3.2 µM. Besides, the IC50 in the data set on RPMI8402 cells (Homo sapiens) turned out to be 0.34 µM.
`CC[C@@]1(O)C(=O)OCc2c1cc1n(c2=O)Cc2cc3c(CN(C)C)c(O)ccc3nc2-1` [Topotecan, reference compound]: at human topoisomerase I, the “TOP1-mediated DNA Cleavage (REC)” value came out at 1. Further, the results for the IC50 with CPT-K5 cells and in the data set with RPMI8402 cells (Homo sapiens) were over 50 µM and 0.012 µM, respectively.
As to `COc1cc([C@@H]2c3cc4c(cc3[C@@H](O[C@@H]3O[C@@H]5CO[C@@H](c6cccs6)O[C@H]5[C@H](O)[C@H]3O)[C@H]3COC(=O)[C@H]23)OCO4)cc(OC)c1O` [VM-26, reference compound], the “TOP1-mediated DNA Cleavage (REC)” value at human topoisomerase I was over 1000. Besides, the results for the IC50 in the data set on CPT-K5 cells and in the data set on RPMI8402 cells (Homo sapiens) were 0.28 µM and 0.22 µM, respectively.

What is called IC50 is the concentration needed to halve the response being measured. A word on the melting point: it is the temperature, or range, at which the solid turns liquid.
